Data from US20070219214A1, “Dual NK2/NK3-antagonists, pharmaceutical compositions comprising them, and processes for their preparation” (Solvay pharmaceuticals GmbH, priority 2006, published 2007).

Key:
human NK2-receptor [1] = molecular target: T1, human NK2-receptor (Homo sapiens, UniProt P21452); assay: Binding potency of the test substances to NK2-receptors in vitro ([3H]-SR 48968 displacement); parameters: expressed in transfected cells; host or cells: CHO cells (membrane preparation); conditions: human NK2-receptor in CHO cell membranes, [3H]-SR 48968 (saredutant), average of at least three measurements; for Ki: read-out: pKi, binding potency to NK2-receptors (converted)
T1 sequence (P21452 1-398): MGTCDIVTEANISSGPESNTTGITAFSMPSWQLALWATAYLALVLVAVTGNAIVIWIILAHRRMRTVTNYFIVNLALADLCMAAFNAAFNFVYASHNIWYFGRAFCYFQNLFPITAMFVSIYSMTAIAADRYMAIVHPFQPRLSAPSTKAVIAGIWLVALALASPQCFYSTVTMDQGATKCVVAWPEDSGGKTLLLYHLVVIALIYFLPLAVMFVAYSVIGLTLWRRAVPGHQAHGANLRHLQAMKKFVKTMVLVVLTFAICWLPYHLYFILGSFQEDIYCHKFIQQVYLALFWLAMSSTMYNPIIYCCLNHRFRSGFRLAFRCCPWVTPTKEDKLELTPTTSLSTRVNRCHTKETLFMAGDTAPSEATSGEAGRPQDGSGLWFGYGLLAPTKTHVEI
Source text: 2. Determination of the Binding Potency of the Test Substances to NK2-Receptors in Vitro
The affinity of test compounds for NK2-receptors can be determined by measuring the ability of the test compound to displace a radiolabeled ligand from its specific binding site.
(§1) The radiolabel used in this assay is [^3H]-SR 48968 (saredutant). Receptors were obtained from membrane preparations of CHO-cells (Chinese Hamster Ovary cells), in which the human NK2-receptor was stably expressed. Membranes were incubated with [^3H]-saredutant in the absence or presence of test compounds at different concentrations, diluted in a buffer system. Separation of bound radioactivity from free radioactivity was done by filtration through glass fiber filters (Packard GF/B) with several washings with ice-cold buffer solution. Bound radioactivity was measured with a liquid scintillation counter (total binding). Unspecific binding was determined by incubation with an excess (0.1 μmol/l) of unlabeled saredutant. Specific binding is obtained by subtracting the unspecific binding from the total binding.
(§2) Radioactivity of the specific binding was plotted against the concentration of the test compound and IC50 values, i.e. the concentration of test compound by which 50% of the radioligand is displaced, were calculated. The inhibition constant (Ki) was calculated according to the Cheng-Prusoff equation, and listed as its negative logarithmic value (pKi). The pKi value describes the potency of a test compound to bind to a receptor.
(§3) The average result of all measurements is listed above.

human NK3 receptor [2] = molecular target: T2, human NK3 receptor (Homo sapiens, UniProt P29371); assay: Binding potency of the test substances to NK3-receptors in vitro ([3H]-SR 142801 displacement); parameters: expressed in transfected cells; host or cells: CHO cells (membrane preparation); conditions: human NK3-receptor in CHO cell membranes, [3H]-SR 142801 (osanetant), average of at least three measurements; for Ki: read-out: pKi, binding potency to NK3-receptors (converted)
T2 sequence (P29371 1-465): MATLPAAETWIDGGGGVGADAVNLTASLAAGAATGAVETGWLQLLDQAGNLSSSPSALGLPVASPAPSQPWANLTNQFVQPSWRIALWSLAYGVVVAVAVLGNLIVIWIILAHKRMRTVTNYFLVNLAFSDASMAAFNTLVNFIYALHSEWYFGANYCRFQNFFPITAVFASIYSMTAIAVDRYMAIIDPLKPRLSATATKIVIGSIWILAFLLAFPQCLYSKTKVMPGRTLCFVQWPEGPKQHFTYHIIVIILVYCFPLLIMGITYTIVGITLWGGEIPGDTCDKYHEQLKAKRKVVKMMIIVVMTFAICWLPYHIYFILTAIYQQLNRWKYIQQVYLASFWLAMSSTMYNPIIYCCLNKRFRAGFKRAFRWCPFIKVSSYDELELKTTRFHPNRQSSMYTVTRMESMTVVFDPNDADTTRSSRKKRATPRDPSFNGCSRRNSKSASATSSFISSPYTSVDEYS
Source text: 3. Determination of the Binding Potency of the Test Substances to NK3-Receptors in Vitro
The affinity of test compounds for NK3-receptors can be determined by measuring the ability of the test compound to displace a radiolabeled ligand from its specific binding site.
as §1, with “142801 (osanetant).” for “48968 (saredutant).”, “NK3-receptor” for “NK2-receptor”, “[^3H]-osanetant” for “[^3H]-saredutant”, “(1” for “(0.1”, “osanetant.” for “saredutant.”
as §2, with “(pKi)” for “(pKi).”
as §3

human NK2-receptor [3] = molecular target: T1, human NK2-receptor; assay: Functional cellular test, Ca2+ measurements using FLIPR for NK2 activity;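 note: CHO cells stably expressing the human receptor, loaded with a calcium dye, antagonist inhibition of ligand-evoked intracellular calcium rise read as peak fluorescence change on FLIPR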
human NK3 receptor [4] = molecular target: T2, human NK3 receptor; assay: Functional cellular test, Ca2+ measurements using aequorin for NK3 activity; assay type: cell-based; parameters: expressed in transfected cells; host or cells: cell line co-expressing mitochondrially targeted apoaequorin (CHO according to b76/b77); conditions: for Kb: read-out: pA2 data for NK3 (converted)

| SMILES | Ki (human NK2-receptor [1]) [nM] | Ki (human NK3 receptor [2]) [nM] | Kb (human NK2-receptor [3]) [nM] | also measured |
| --- | --- | --- | --- | --- |
| Cc1c(C(=O)N(C)CC(CCN2CCC(C(=O)N(C)C)(N3CCCCC3)CC2)c2ccc(Cl)c(Cl)c2)nnn1Cc1ccccc1 (stereo not shown) [compound 67] | 6.31 | 5.01 | 25.1 | Kb (human NK3 receptor [4]): 15.8 nM |
| CN(C)C(=O)C1(N2CCCCC2)CCN(CCC(CN(C)C(=O)c2ccc(OC(F)(F)F)cc2)c2ccc(Cl)c(Cl)c2)CC1 (stereo not shown) [compound 55] | 6.31 | 3.98 | 2 | Kb (human NK3 receptor [4]): 7.94 nM |
| CC(=O)N1CCC(C(=O)N(C)CC(CCN2CCC(C(=O)N(C)C)(N3CCCCC3)CC2)c2ccc(Cl)c(Cl)c2)CC1 (stereo not shown) [compound 52] | 15.8 | 12.6 | 3.98 |  |
| CN(C)C(=O)C1CCCCN1C1CCN(CCC(CN(C)C(=O)c2ccccc2)c2ccc(Cl)c(Cl)c2)CC1 (stereo not shown) [compound 97] | 2 | 79.4 | 0.251 | Kb (human NK3 receptor [4]): 79.4 nM |
| CN(C)C(=O)C1(N2CCCCC2)CCN(CC[C@H](CN(C)C(=O)c2ccccc2O)c2ccc(Cl)c(Cl)c2)CC1 [compound 12] |  |  |  | pKi, binding potency to NK2-receptors (human NK2-receptor [1]): 8.7; pKi, binding potency to NK3-receptors (human NK3 receptor [2]): 7.9; pA2 data for NK2 (human NK2-receptor [3]; CHO cells, human NK2, FLIPR Ca2+, agonist NKA 10^-7 M): 8.3; pA2 data for NK3 (human NK3 receptor [4]; cell line with human NK3 receptor and apoaequorin, agonist senktide 5x10-8 M): 7.9 |
| CN(C)C(=O)C1(N2CCCCC2)CCN(CCC(CN(C)C(=O)c2ccc3occc3c2)c2ccc(Cl)c(Cl)c2)CC1 (stereo not shown) [compound 68] | 2 | 10 | 10 |  |
| CC(=O)Oc1ccc(C(=O)N(C)C[C@@H](CCN2CCC(C(=O)N(C)C)(N3CCCCC3)CC2)c2ccc(Cl)c(Cl)c2)cc1 [compound 5, 4-({[(2S)-2-(3,4-dichlorophenyl)-4-{4′-[(dimethylamino)-carbonyl]-1,4′-bipiperidin-1′-yl}butyl](methyl)amino}carbonyl)phenyl acetate] | 1 | 5.01 | 3.16 | Kb (human NK3 receptor [4]): 3.16 nM |
| CN(C)C(=O)C1(N2CCCCC2)CCN(CCC(CN(C)C(=O)C2CC2)c2ccc(Cl)c(Cl)c2)CC1 (stereo not shown) [compound 22] | 15.8 | 50.1 |  |  |
| CN(C)C(=O)C1(N2CCCCC2)CCN(CCC(CN(C)C(=O)c2cc[n+]([O-])cc2)c2ccc(Cl)c(Cl)c2)CC1 (stereo not shown) [compound 17] | 31.6 |  | 15.8 | Kb (human NK3 receptor [4]): 126 nM |
| CN(C)C(=O)C1(N2CCCCC2)CCN(CCC(CN(C)C(=O)c2ccoc2)c2ccc(Cl)c(Cl)c2)CC1 (stereo not shown) [compound 36] | 1.58 | 5.01 | 0.501 | Kb (human NK3 receptor [4]): 63.1 nM |
| Cc1ccccc1C(=O)N(C)CC(CCN1CCC(C(=O)N(C)C)(N2CCCCC2)CC1)c1ccc(Cl)c(Cl)c1 (stereo not shown) [compound 78] | 1.58 | 25.1 |  |  |
| CN(C)C(=O)C1(N2CCCCC2)CCN(CCC(CN(C)C(=O)Cc2ccncc2)c2ccc(Cl)c(Cl)c2)CC1 (stereo not shown) [compound 51] | 79.4 | 6.31 | 39.8 | Kb (human NK3 receptor [4]): 31.6 nM |
| CN(C[C@@H](CCN1CCC(C(=O)N2CCCC2)(N2CCCCC2)CC1)c1ccc(Cl)c(Cl)c1)C(=O)c1ccccc1 [compound 124, N-{(2S)-2-(3,4-dichlorophenyl)-4-[4′-(pyrrolidin-1-ylcarbonyl)-1,4′-bipiperidin-1′-yl]butyl}-N-methylbenzamide] | 1 | 15.8 |  |  |
| CN(C)C(=O)C1(N2CCCCC2)CCN(CCC(CN(C)C(=O)c2c(F)cccc2F)c2ccc(Cl)c(Cl)c2)CC1 (stereo not shown) [compound 74] | 3.98 | 25.1 |  |  |
| CN(C)C(=O)C1(N2CCCCC2)CCN(CCC(CN(C)C(=O)c2ccc(Cl)c(Cl)c2)c2ccc(Cl)c(Cl)c2)CC1 (stereo not shown) [compound 81] | 12.6 | 79.4 |  |  |
| CN(C)C(=O)C1(N2CCCCC2)CCN(CCC(CN(C)C(=O)c2c(-c3ccccc3)oc3ccccc3c2=O)c2ccc(Cl)c(Cl)c2)CC1 (stereo not shown) [compound 21] | 12.6 | 63.1 |  |  |
| CN(C)C(=O)C1(N2CCCCC2)CCN(CCC(CN(C)C(=O)c2ccc(OC(F)(F)F)cc2)c2ccc(Cl)c(Cl)c2)CC1 (stereo not shown) [compound 26] | 5.01 | 50.1 |  |  |
| CN(C)C(=O)C1(N2CCCCC2)CCN(CCC(CN(C)C(=O)c2ccc3cc[nH]c3c2)c2ccc(Cl)c(Cl)c2)CC1 (stereo not shown) [compound 41] | 3.16 | 15.8 |  |  |
| CN(C)C(=O)C1(N2CCCCC2)CCN(CC[C@H](CN(C)C(=O)c2ccccc2)c2ccccc2)CC1 [compound 94, 1′-[(3S)-4-[benzoyl(methyl)amino]-3-phenylbutyl]-N,N-dimethyl-1, 4′-bipiperidine-4′-carboxamide] | 3.16 |  | 1.58 |  |
| CN(C)C(=O)C1(N2CCCCC2)CCN(CCC(CN(C)C(=O)c2ccco2)c2ccc(Cl)c(Cl)c2)CC1 (stereo not shown) [compound 31] | 3.98 | 39.8 |  |  |
| CN(C)C(=O)C1(N2CCCCC2)CCN(CCC(CN(C)C(=O)c2ccc(C(F)(F)F)cc2)c2ccc(Cl)c(Cl)c2)CC1 (stereo not shown) [compound 86] | 12.6 | 63.1 |  |  |
| CN(C)C(=O)C1(N2CCCCC2)CCN(CCC(CN(C)C(=O)c2ccc(S(N)(=O)=O)cc2)c2ccc(Cl)c(Cl)c2)CC1 (stereo not shown) [compound 46] | 6.31 | 31.6 |  |  |
| CN(C)C(=O)C1(N2CCCCC2)CCN(CCC(CN(C)C(=O)c2ccc3ccccc3c2)c2ccc(Cl)c(Cl)c2)CC1 (stereo not shown) [compound 32] | 15.8 | 39.8 |  |  |
| CN(C)C(=O)C1(N2CCCCC2)CCN(CCC(CN(C)C(=O)C2CCOCC2)c2ccc(Cl)c(Cl)c2)CC1 (stereo not shown) [compound 53] |  | 3.16 |  | Kb (human NK3 receptor [4]): 50.1 nM |
| CN(C)C(=O)C1(N2CCCCC2)CCN(CCC(CN(C)C(=O)c2ccccc2C(F)(F)F)c2ccc(Cl)c(Cl)c2)CC1 (stereo not shown) [compound 77] | 3.16 | 79.4 |  |  |
| CN(C)C(=O)C1(N2CCCCC2)CCN(CCC(CN(C)C(=O)c2cc[nH]c2)c2ccc(Cl)c(Cl)c2)CC1 (stereo not shown) [compound 64] | 12.6 | 79.4 |  |  |
| CN(C)C(=O)C1(N2CCCCC2)CCN(CCC(CN(C)C(=O)c2cccc(F)c2)c2ccc(Cl)c(Cl)c2)CC1 (stereo not shown) [compound 79] | 2 | 20 |  |  |
| CN(C)C(=O)C1(N2CCCCC2)CCN(CCC(CN(C)C(=O)Cc2ccccn2)c2ccc(Cl)c(Cl)c2)CC1 (stereo not shown) [compound 49] | 10 | 7.94 |  |  |
